Measured values as given in patent publication US5043450A, “8-alkoxyquinolonecarboxylic acid and salts thereof” (priority 1986, dated 1991).
In brackets after ≈: the same amount, converted by molar mass.

What was measured:
Type in all cases: cell-based
Bacilus subtilis PCI 219 = test: Antibacterial spectra, MIC; settings: Bacillus subtilis, PCI219
[1] = test system: Staphylococcus aureus 209 P; test: Antibacterial spectra, MIC
P. aeruginosa IID 1210 = test: Antibacterial spectra, MIC; settings: Pseudomonas aeruginosa, IID1210
B. fragilis 25285 = test: Antibacterial spectra, MIC; settings: Bacteroides fragilis
[2] = test system: Enterobacter cloacae IID 977; test: Antibacterial spectra, MIC; settings: IID977
[3] = test system: Citrobacter freundii IID 976; test: Antibacterial spectra, MIC; settings: IID976
K. pneumoniae 1-220S = test: Antibacterial spectra, MIC; settings: Klebsiella pneumoniae, 1220S
[4] = test system: Peptostreptococcus anaerobius KYA 27337; test: Antibacterial spectra, MIC; settings: KYA27337
[5] = test system: Peptococcus magnus KY 017; test: Antibacterial spectra, MIC; settings: Finegoldia magna, KY017
P. mirabilis IID 994 = test: Antibacterial spectra, MIC; settings: Proteus mirabilis, IID994
[6] = test system: Acinetobacter anitratus IID 876; test: Antibacterial spectra, MIC; settings: Acinetobacter calcoaceticus, IID876
F. necrophorum S-45 = test: Antibacterial spectra, MIC; settings: Fusobacterium necrophorum, S45
F. varium KYA 8501 = test: Antibacterial spectra, MIC; settings: Fusobacterium varium, KYA8501
[7] = test system: Clostridium difficile I-E; test: Antibacterial spectra, MIC; settings: Clostridioides difficile
Pst. micros UPI 5464-1 = test: Antibacterial spectra, MIC; settings: Parvimonas micra, UPI54641
C. perfringens KYA 13123 = test: microbe, parasite or virus in culture; settings: Clostridium perfringens, KYA13123
[8] = test system: Bacteroides fragilis GM 7000; test: Antibacterial spectra, MIC; settings: GM7000
P. maltophilia GIFU 2491 = test: Antibacterial spectra, MIC; settings: Stenotrophomonas maltophilia, GIFU2491
[9] = test system: B. thetaiotaomicron (0661); test: Antibacterial spectra, MIC; settings: Bacteroides thetaiotaomicron
S. aureus Smith = test: Antibacterial spectra, MIC; settings: Staphylococcus aureus
[10] = test system: Fusobacterium mortiferum 4249; test: Antibacterial spectra, MIC
[11] = test system: Veillonella parvula KYA 10790; test: Antibacterial spectra, MIC; settings: KYA10790
[12] = test system: S. aureus IID 670 (Terajima); test: Antibacterial spectra, MIC; settings: Staphylococcus aureus, IID670
[13] = test system: Eubacterium lentum GAI 5242; test: Antibacterial spectra, MIC; settings: Eggerthella lenta, GAI5242
E. coli ML 4707 = test: Antibacterial spectra, MIC; settings: Escherichia coli, ML4707; 10^6 cells/ml; Gram -
Method: (§1) The antibacterial test was carried out according to the method designated by Japan Society of Chemotherapy.

[14] = test system: Proteus vulgaris IFO 3167; test: Antibacterial spectra, MIC; settings: IFO3167, 10^6 cells/ml, Gram -
Method: as §1

Shigella sonnei IID 969 = test: Antibacterial spectra, MIC; settings: IID969, 10^6 cells/ml, Gram -
Method: as §1

[15] = test system: Klebsiella pneumoniae KY(GN)6445; test: Antibacterial spectra, MIC
P. cepacia GIFU 518 = test: Antibacterial spectra, MIC; settings: Burkholderia cepacia, GIFU518
[16] = test system: Pseudomonas aeruginosa V-1; test: Antibacterial spectra, MIC; settings: V1
[17] = test system: Morganella morganii IID 602; test: Antibacterial spectra, MIC; settings: IID602
B. distasonis 8503 = test: Antibacterial spectra, MIC; settings: Parabacteroides distasonis
B. vulgatus KYA 29327 = test: Antibacterial spectra, MIC; settings: Phocaeicola vulgatus, KYA29327
[18] = test system: Salmonella enteritidis IID 604; test: Antibacterial spectra, MIC; settings: Salmonella enterica
[19] = test system: Yersinia enterocolitica IID 981; test: Antibacterial spectra, MIC; settings: IID981
[20] = test system: Escherichia coli NIHJ JC-2; test: Antibacterial spectra, MIC; settings: NIHJJC2
P. aeruginosa IFO 12689 = test: Antibacterial spectra, MIC; settings: Pseudomonas aeruginosa, IFO12689
C. ramosum = test: Antibacterial spectra, MIC; settings: Thomasclavelia ramosa
[21] = test system: Serratia marcescens IID 618; test: Antibacterial spectra, MIC; settings: IID618
B. fragilis 0558 = test: Antibacterial spectra, MIC; settings: Bacteroides fragilis
S. epidermidis IID 866 = test: Antibacterial spectra, MIC; settings: Staphylococcus epidermidis, IID866
[22] = test system: Alcaligenes faecalis 0114002; test: Antibacterial spectra, MIC
E. coli ATCC 10536 = test: Antibacterial spectra, MIC; settings: Escherichia coli, ATCC10536
[23] = test system: Propionibacterium acens 11828; test: Antibacterial spectra, MIC

## COc1c(N2CCNC(C)C2)c(F)cc2c(=O)c(C(=O)O)cn(C3CC3)c12 (centres unmarked) [Exp. 3, 1-cyclopropyl-6-fluoro-1,4-dihydro-8-methoxy-7-(3-methyl-1-piperazinyl)-4-oxo-3-quinolinecarboxylic acid]
Bacilus subtilis PCI 219
  MIC: 0.025 µg/mL (≈ 0.0666 µM)
[1]
  MIC: 0.1 µg/mL (≈ 0.266 µM)
P. aeruginosa IID 1210
  MIC: 1.56 µg/mL (≈ 4.16 µM)
B. fragilis 25285
  MIC: 0.39 µg/mL (≈ 1.04 µM)
[2]
  MIC: 0.05 µg/mL (≈ 0.133 µM)
[3]
  MIC: 0.025 µg/mL (≈ 0.0666 µM)
K. pneumoniae 1-220S
  MIC: 0.05 µg/mL (≈ 0.133 µM)
[4]
  MIC: 0.39 µg/mL (≈ 1.04 µM)
[5]
  MIC: 0.2 µg/mL (≈ 0.533 µM)
P. mirabilis IID 994
  MIC: 0.025 µg/mL (≈ 0.0666 µM)
[6]
  MIC: 0.1 µg/mL (≈ 0.266 µM)
F. necrophorum S-45
  MIC: 0.39 µg/mL (≈ 1.04 µM)
F. varium KYA 8501
  MIC: 6.25 µg/mL (≈ 16.6 µM)
[7]
  MIC: 3.13 µg/mL (≈ 8.34 µM)
Pst. micros UPI 5464-1
  MIC: 0.2 µg/mL (≈ 0.533 µM)
C. perfringens KYA 13123
  MIC: 0.39 µg/mL (≈ 1.04 µM)
[8]
  MIC: 0.39 µg/mL (≈ 1.04 µM)
P. maltophilia GIFU 2491
  MIC: 0.2 µg/mL (≈ 0.533 µM)
[9]
  MIC: 0.78 µg/mL (≈ 2.08 µM)
S. aureus Smith
  MIC: 0.1 µg/mL (≈ 0.266 µM)
[10]
  MIC: 0.78 µg/mL (≈ 2.08 µM)
[11]
  MIC: 0.2 µg/mL (≈ 0.533 µM)
[12]
  MIC: 0.1 µg/mL (≈ 0.266 µM)
[13]
  MIC: 0.2 µg/mL (≈ 0.533 µM)
E. coli ML 4707
  MIC: 0.0125 µg/mL (≈ 0.0333 µM)
[14]
  MIC: 0.025 µg/mL (≈ 0.0666 µM)
Shigella sonnei IID 969
  MIC: 0.0125 µg/mL (≈ 0.0333 µM)
[15]
  MIC: 0.025 µg/mL (≈ 0.0666 µM)
P. cepacia GIFU 518
  MIC: 1.56 µg/mL (≈ 4.16 µM)
[16]
  MIC: 0.2 µg/mL (≈ 0.533 µM)
[17]
  MIC: 0.1 µg/mL (≈ 0.266 µM)
B. distasonis 8503
  MIC: 0.78 µg/mL (≈ 2.08 µM)
B. vulgatus KYA 29327
  MIC: 0.78 µg/mL (≈ 2.08 µM)
[18]
  MIC: 0.05 µg/mL (≈ 0.133 µM)
[19]
  MIC: 0.05 µg/mL (≈ 0.133 µM)
[20]
  MIC: ≤ 6.3 ng/mL
P. aeruginosa IFO 12689
  MIC: 1.56 µg/mL (≈ 4.16 µM)
C. ramosum
  MIC: 3.13 µg/mL (≈ 8.34 µM)
[21]
  MIC: 0.1 µg/mL (≈ 0.266 µM)
B. fragilis 0558
  MIC: 0.39 µg/mL (≈ 1.04 µM)
S. epidermidis IID 866
  MIC: 0.1 µg/mL (≈ 0.266 µM)
[22]
  MIC: 0.39 µg/mL (≈ 1.04 µM)
E. coli ATCC 10536
  MIC: 0.0125 µg/mL (≈ 0.0333 µM)
[23]
  MIC: 6.25 µg/mL (≈ 16.6 µM)
